Experiments:
[1] = target: T1, L858R/T790M/C797S EGFR (Homo sapiens, UniProt P00533, C797S/L858R/T790M); test: EGFR degradation HTRF assay in H1975-clone #25 (LTC) cells; type: cell-based; conditions: 16h treatment; for DC50: H1975 # 25-LTC (L858R/T790M/C797S), HTRF; for Dmax: NCI-H1975, H1975 # 25-LTC (L858R/T790M/C797S), maximum percentage of degradation
T1 construct: expressed in transfected cells; host or cells: H1975 clone #25 (lentiviral over-expression, endogenous EGFR knocked out by sgRNA)
T1 sequence (P00533 25-1210 T790M/C797S/L858R): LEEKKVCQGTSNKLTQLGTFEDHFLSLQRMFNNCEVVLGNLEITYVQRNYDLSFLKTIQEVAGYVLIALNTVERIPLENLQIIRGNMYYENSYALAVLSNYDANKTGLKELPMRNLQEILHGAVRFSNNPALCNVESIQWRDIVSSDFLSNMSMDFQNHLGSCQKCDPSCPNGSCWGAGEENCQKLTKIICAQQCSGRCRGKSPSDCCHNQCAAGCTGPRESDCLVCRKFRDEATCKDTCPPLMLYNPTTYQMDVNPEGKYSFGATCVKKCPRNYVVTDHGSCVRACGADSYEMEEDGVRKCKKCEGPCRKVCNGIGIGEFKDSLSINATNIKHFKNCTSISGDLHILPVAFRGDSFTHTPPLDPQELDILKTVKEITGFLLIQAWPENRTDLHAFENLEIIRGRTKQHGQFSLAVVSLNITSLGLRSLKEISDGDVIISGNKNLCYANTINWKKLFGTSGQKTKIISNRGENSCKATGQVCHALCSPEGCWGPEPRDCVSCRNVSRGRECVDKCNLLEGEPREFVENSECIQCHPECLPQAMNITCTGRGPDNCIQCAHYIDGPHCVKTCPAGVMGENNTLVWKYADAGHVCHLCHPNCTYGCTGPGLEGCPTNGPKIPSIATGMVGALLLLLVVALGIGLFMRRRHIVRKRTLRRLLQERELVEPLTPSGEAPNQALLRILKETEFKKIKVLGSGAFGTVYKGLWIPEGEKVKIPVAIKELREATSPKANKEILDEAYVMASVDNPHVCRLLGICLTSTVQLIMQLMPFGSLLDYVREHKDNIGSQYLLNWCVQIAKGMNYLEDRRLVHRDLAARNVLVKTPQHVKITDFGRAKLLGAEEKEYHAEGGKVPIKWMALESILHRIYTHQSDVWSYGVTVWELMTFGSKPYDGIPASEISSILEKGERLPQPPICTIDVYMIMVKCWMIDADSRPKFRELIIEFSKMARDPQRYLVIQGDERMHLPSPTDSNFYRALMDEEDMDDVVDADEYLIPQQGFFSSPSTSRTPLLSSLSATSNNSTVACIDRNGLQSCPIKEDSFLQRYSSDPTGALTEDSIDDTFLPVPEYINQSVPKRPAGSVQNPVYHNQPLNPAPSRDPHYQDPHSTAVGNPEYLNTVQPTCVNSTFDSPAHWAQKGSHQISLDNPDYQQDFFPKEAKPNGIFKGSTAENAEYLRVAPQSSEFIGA
Outline: (§1)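 Engineered H1975 lines (exogenous mutant EGFR, endogenous copies knocked out, single clones sequence-verified); 16 h compound, 37 °C/5% CO2, 0.2% DMSO; top 10 uM, 5-fold, 8 pts; lysis 1 h RT, HTRF antibodies overnight RT; 4-parameter logistic fit → DC50.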

[2] = test system: Del19/T790M/C797S EGFR; test: EGFR degradation HTRF assay in H1975-clone #28 (DTC) cells; type: cell-based; conditions: H1975 # 28 DTC (Del19/T790M/C797S), 16h treatment; for DC50: HTRF; for Dmax (%): maximum percentage of degradation
Outline: as §1

| SMILES | DC50 [1] | Dmax [1] | DC50 [2] | Dmax (%) [2] |
| --- | --- | --- | --- | --- |
| Cc1cc2cc(n1)-c1cnn(C)c1OCCC[C@@H](C)CN1/C(=N/C2=O)Nc2ccc(N3CCC(N4CCN(c5cc(F)c([C@H]6CCC(=O)NC6=O)c(F)c5)CC4=O)CC3)cc21 [Example 450, (R)-3-(2,6-difluoro-4-(3-oxo-4-(1-((R,E)-1^1,2^6,7-trimethyl-3-oxo-5^2,5^3-dihydro-1^1H,5^1H-11-oxa-4-aza-5(2,1)-benzo[d]imidazola-2(2,4)-pyridina-1(4,5)-pyrazolacycloundecaphane-5^6-yl)piperidin-4-yl)piperazin-1-yl)phenyl)piperidine-2,6-dione] | 0.678 nM | 88.7% | 0.647 nM | 83.01% |
| Cc1cc2cc(n1)-c1cnn(C)c1OCCC[C@@H](C)CN1/C(=N/C2=O)Nc2ccc(C(=O)N(C)C3CCN(CCc4cccc5c4C(C)(C)C(=O)N5C4CCC(=O)NC4=O)CC3)cc21 (stereo partly drawn) [Example 317, (7R,E)-N-(1-(2-(1-(2,6-dioxopiperidin-3-yl)-3,3-dimethyl-2-oxoindolin-4-yl)ethyl)piperidin-4-yl)-N,1^1,2^6,7-tetramethyl-3-oxo-5^2,5^3-dihydro-1^1H,5^1H-11-oxa-4-aza-5(2,1)-benzo[d]imidazola-2(2,4)-pyridina-1(4,5)-pyrazolacycloundecaphane-5^6-carboxamide] | 1.14 nM | 80.2% | 0.728 nM | 52.86% |
| Cc1cc2cc(n1)-c1cnn(C)c1OCC[C@H]1C[C@@H]1CN1/C(=N/C2=O)Nc2ccc(N3CCN(C[C@H]4C[C@H](Nc5cc(F)c([C@H]6CCC(=O)NC6=O)c(F)c5)C4)CC3)cc21 [Example 457, (R)-3-(4-(((1S,3R)-3-((4-((7^1S,7^2R,E)-1^1,2^6-dimethyl-3-oxo-5^2,5^3-dihydro-1^1H,5^1H-10-oxa-4-aza-5(2,1)-benzo[d]imidazola-2(2,4)-pyridina-1(4,5)-pyrazola-7(1,2)-cyclopropanacyclodecaphane-5^6-yl)piperazin-1-yl)methyl)cyclobutyl)amino)-2,6-difluorophenyl)piperidine-2,6-dione] | 0.632 nM | 92.8% | 0.709 nM | 91.81% |
| Cc1cc2cc(n1)-c1cnn(C)c1OCCC[C@@H](C)CN1/C(=N/C2=O)Nc2ccc(N3C[C@@H](C)N(C4CCN(c5cc(F)c([C@H]6CCC(=O)NC6=O)c(F)c5)CC4)C[C@H]3C)cc21 [Example 398, (R)-3-(4-(4-((2R,5R)-2,5-dimethyl-4-((R,E)-1^1,2^6,7-trimethyl-3-oxo-5^2,53-dihydro-1^1H,5^1H-11-oxa-4-aza-5(2,1)-benzo[d]imidazola-2(2,4)-pyridina-1(4,5)-pyrazolacycloundecaphane-5^6-yl)piperazin-1-yl)piperidin-1-yl)-2,6-difluorophenyl)piperidine-2,6-dione] | 4.7 nM | 90.3% | 4.5 nM | 72.53% |
| Cc1cc2cc(n1)-c1cnn(C)c1OCCC[C@@H](C)CN1/C(=N/C2=O)Nc2ccc(C(=O)N(C)[C@@H]3CCN(CCc4cc(F)c([C@H]5CCC(=O)NC5=O)c(F)c4)[C@@H](C)C3)cc21 [Example 258, (R,E)-N—((2S,4R)-1-(4-((R)-2,6-dioxopiperidin-3-yl)-3,5-difluorophenethyl)-2-methylpiperidin-4-yl) -N,1^1,2^6,7-tetramethyl-3-oxo-5^2,5^3-dihydro-1^1H,5^1H-11-oxa-4-aza-5(2,1)-benzo[d]imidazola-2(2,4)-pyridina-1(4,5)-pyrazolacycloundecaphane-5^6-carboxamide] | 0.381 nM | 88.2% | 0.577 nM | 81.96% |
| Cc1cc2cc(n1)-c1cnn(C)c1OCCC[C@@H](C)CN1/C(=N/C2=O)Nc2ccc(N3CCN(C4CCN(c5ccc(C6CCC(=O)NC6=O)nc5)CC4)CC3)cc21 (stereo partly drawn) [Example 373, 3-(5-(4-(4-((R,E)-1^1,2^6,7-trimethyl-3-oxo-5^2,5^1-dihydro-1^1H,5^1H-11-oxa-4-aza-5(2,1)-benzo[d]imidazola-2(2,4)-pyridina-1(4,5)-pyrazolacycloundecaphane-5^6-yl)piperazin-1-yl)piperidin-1-yl)pyridin-2-yl)piperidine-2,6-dione] | 0.47 nM | 84.9% | 0.656 nM | 69.22% |
| Cc1cc2cc(n1)-c1cnn(C)c1OCCC[C@@H](C)CN1/C(=N/C2=O)Nc2ccc(CN3CCC4(CC3)CCN(C(=O)C3CN(c5cc(F)c([C@H]6CCC(=O)NC6=O)c(F)c5)C3)CC4)cc21 [Example 12, (R)-3-(2,6-difluoro-4-(3-(9-(((R,E)-1^1,2^6,7-trimethyl-3-oxo-5^2,53-dihydro-1^1H,5^1H-11-oxa-4-aza-5(2,1)-benzo[d]imidazola-2(2,4)-pyridina-1(4,5)-pyrazolacycloundecaphane-5^6-yl)methyl)-3,9-diazaspiro[5.5]undecane-3-carbonyl)azetidin-1-yl)phenyl)piperidine-2,6-dione] | 0.6 nM | 94.3% | 0.5 nM | 86.7% |
| Cc1cc2cc(n1)-c1cnn(C)c1OCCC[C@@H](C)CN1/C(=N/C2=O)Nc2ccc(N3CCN(CC4CN(c5cc(F)c([C@H]6CCC(=O)NC6=O)c(F)c5)C4)CC3)cc21 [Example 321, (R)-3-(2,6-difluoro-4-(3-((4-((R,E)-1^1,2^6,7-trimethyl-3-oxo-5^2,5^3-dihydro-1^1H,5^1H-11-oxa-4-aza-5(2,1)-benzo[d]imidazola-2(2,4)-pyridina-1(4,5)-pyrazolacycloundecaphane-5^6-yl)piperazin-1-yl)methyl)azetidin-1-yl)phenyl)piperidine-2,6-dione] | 1.17 nM | 88.2% | 1.18 nM | 73.52% |
| CO[C@@H]1CN(CCc2cc(F)c([C@H]3CCC(=O)NC3=O)c(F)c2)CC[C@@H]1NC(=O)c1ccc2c(c1)N1C[C@H](C)CCCOc3c(cnn3C)-c3cc(cc(C)n3)C(=O)/N=C/1N2 [Example 245, (R,E)-N-((3R,4S)-1-(4-((R)-2,6-dioxopiperidin-3-yl)-3,5-difluorophenethyl)-3-methoxypiperidin-4-yl)-1^1,2^5,7-trimethyl-3-oxo-5^2,5^3-dihydro-1^1H,5^1H-11-oxa-4-aza-5(2,1)-benzo[d]imidazola-2(2,4)-pyridina-1(4,5)-pyrazolacycloundecaphane-5^6-carboxamide] | 0.487 nM | 94% | 0.534 nM | 81.9% |
| Cc1cc2cc(n1)-c1cnn(C)c1OCC[C@H]1C[C@@H]1CN1/C(=N/C2=O)Nc2ccc(N3CCN(CC4CN(c5cc(F)c([C@H]6CCC(=O)NC6=O)c(F)c5)C4)CC3)cc21 [Example 461, (R)-3-(4-(3-((4-((7^1S,7^2R,E)-1^1,2^6-dimethyl-3-oxo-5^2,5^3-dihydro-1^1H,5^1H-10-oxa-4-aza-5(2,1)-benzo[d]imidazola-2(2,4)-pyridina-1(4,5)-pyrazola-7(1,2)-cyclopropanacyclodecaphane-5^6-yl)piperazin-1-yl)methyl)azetidin-1-yl)-2,6-difluorophenyl)piperidine-2,6-dione] | 1.64 nM | 90.6% | 0.702 nM | 84.7% |
| CCN(CCN1CCN(c2cc(F)c([C@H]3CCC(=O)NC3=O)c(F)c2)CC1)C(=O)c1ccc2c(c1)N1C[C@H](C)CCCOc3c(cnn3C)-c3cc(cc(C)n3)C(=O)/N=C/1N2 [Example 281, (R,E)-N-(2-(4-(4-((R)-2,6-dioxopiperidin-3-yl)-3,5-difluorophenyl)piperazin-1-yl)ethyl)-N-ethyl-1′,2^6,7-trimethyl-3-oxo-5^2,5^3-dihydro-1^1H,5^1H-11-oxa-4-aza-5(2,1)-benzo[d]imidazola-2(2,4)-pyridina-1(4,5)-pyrazolacycloundecaphane-5^6-carboxamide] | 0.411 nM | 90.4% | 0.501 nM | 75.01% |
| CO[C@@H]1CN(CCc2cc(F)c([C@H]3CCC(=O)NC3=O)c(F)c2)CC[C@H]1N(C)C(=O)c1ccc2c(c1)N1C[C@H](C)CCCOc3c(cnn3C)-c3cc(cc(C)n3)C(=O)/N=C/1N2 [Example 254, (R,E)-N—((3R,4R)-1-(4-((R)-2,6-dioxopiperidin-3-yl)-3,5-difluorophenethyl)-3-methoxypiperidin-4-yl)-N,1^1,2^6,7-tetramethyl-3-oxo-5^2,5^3-dihydro-1^1H,5^1H-11-oxa-4-aza-5(2,1)-benzo[d]imidazola-2(2,4) -pyridina-1(4,5)-pyrazolacycloundecaphane-5^6-carboxamide] | 0.91 nM | 91.2% | 0.624 nM | 86.3% |
| Cc1cc2cc(n1)-c1cnn(C)c1OCCC[C@@H](C)CN1/C(=N/C2=O)Nc2ccc(CN3CCN(C(=O)[C@@H]4CCN(c5cc(F)c([C@H]6CCC(=O)NC6=O)c(F)c5)C4)CC3=O)cc21 [Example 200, (R)-3-(2,6-difluoro-4-((R)-3-(3-oxo-4-(((R,E)-1^1,2^6,7-trimethyl-3-oxo-5^2,5^3-dihydro-1^1H,5^1H-11-oxa-4-aza-5(2,1)-benzo[d]imidazola-2(2,4)-pyridina-1(4,5)-pyrazolacycloundecaphane-5^6-yl)methyl)piperazine-1-carbonyl)pyrrolidin-1-yl)phenyl)piperidine-2,6-dione] | 1.22 nM | 86% | 1.38 nM | 73.04% |

Reference: patent publication US20240342292A1, “Compounds for the Degradation of EGFR Kinase” (BeiGene Switzerland GmbH, priority 2021, published 2024)
